From ChEMBL document CHEMBL4387706, “Discovery of Novel Spiroindoline Derivatives as Selective Tankyrase Inhibitors” (J Med Chem, 2019)
Values after ≈ are worked out from the molar mass of the structure shown.

Key:
[1] = target: Poly [ADP-ribose] polymerase 1 (Homo sapiens, UniProt P09874)
Description: Inhibition of recombinant human PARP1 expressed in Escherichia coli assessed as reduction in auto-PARylation using histone as substrate measured after 45 mins in presence of biotinylated-NAD+ by ELISA

[2] = target: T1, Poly [ADP-ribose] polymerase tankyrase-2 (Homo sapiens, UniProt Q9H2K2)
T1 sequence (Q9H2K2 whole entry): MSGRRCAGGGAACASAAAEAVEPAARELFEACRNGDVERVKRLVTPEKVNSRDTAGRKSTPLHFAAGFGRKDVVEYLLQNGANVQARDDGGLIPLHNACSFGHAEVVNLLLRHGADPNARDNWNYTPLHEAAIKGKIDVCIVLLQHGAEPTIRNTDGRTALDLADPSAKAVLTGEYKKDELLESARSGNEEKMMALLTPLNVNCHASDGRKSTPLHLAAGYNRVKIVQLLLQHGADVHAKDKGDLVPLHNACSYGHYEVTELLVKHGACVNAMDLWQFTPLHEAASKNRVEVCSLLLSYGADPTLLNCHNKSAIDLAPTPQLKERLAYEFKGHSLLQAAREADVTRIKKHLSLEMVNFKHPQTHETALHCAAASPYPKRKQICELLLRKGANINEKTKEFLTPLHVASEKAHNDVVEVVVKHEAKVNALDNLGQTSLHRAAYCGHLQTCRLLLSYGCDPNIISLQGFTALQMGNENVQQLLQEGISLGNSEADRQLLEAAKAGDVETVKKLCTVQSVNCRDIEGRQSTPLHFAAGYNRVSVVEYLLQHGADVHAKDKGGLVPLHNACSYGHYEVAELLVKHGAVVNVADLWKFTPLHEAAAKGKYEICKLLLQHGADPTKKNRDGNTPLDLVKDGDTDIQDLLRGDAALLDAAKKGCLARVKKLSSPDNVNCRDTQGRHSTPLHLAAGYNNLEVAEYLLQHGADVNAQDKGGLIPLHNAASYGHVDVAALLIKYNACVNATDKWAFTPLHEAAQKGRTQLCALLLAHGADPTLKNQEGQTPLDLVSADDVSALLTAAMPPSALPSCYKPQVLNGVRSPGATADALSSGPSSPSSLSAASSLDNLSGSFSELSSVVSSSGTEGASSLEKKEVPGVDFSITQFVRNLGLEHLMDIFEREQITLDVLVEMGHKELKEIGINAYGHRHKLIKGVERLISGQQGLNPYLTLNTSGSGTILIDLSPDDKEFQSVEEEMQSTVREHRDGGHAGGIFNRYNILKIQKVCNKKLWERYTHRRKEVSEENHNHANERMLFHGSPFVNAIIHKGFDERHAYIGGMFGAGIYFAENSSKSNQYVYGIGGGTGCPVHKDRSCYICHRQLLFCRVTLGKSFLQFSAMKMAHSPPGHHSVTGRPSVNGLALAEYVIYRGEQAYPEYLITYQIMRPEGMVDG
Description: Inhibition of recombinant human N-terminal TEV cleavage site-fused/FLAG-poly his-tagged TNKS2 SAM-PARP domain (613 to 1166 residues) expressed in Escherichia coli assessed as reduction in auto-PARylation preincubated for 10 mins followed by biotinylated-NAD+ addition and measured after 45 mins by ELISA

[3] = target: T2, Poly [ADP-ribose] polymerase tankyrase-1 (Homo sapiens, UniProt O95271)
T2 sequence (O95271 whole entry): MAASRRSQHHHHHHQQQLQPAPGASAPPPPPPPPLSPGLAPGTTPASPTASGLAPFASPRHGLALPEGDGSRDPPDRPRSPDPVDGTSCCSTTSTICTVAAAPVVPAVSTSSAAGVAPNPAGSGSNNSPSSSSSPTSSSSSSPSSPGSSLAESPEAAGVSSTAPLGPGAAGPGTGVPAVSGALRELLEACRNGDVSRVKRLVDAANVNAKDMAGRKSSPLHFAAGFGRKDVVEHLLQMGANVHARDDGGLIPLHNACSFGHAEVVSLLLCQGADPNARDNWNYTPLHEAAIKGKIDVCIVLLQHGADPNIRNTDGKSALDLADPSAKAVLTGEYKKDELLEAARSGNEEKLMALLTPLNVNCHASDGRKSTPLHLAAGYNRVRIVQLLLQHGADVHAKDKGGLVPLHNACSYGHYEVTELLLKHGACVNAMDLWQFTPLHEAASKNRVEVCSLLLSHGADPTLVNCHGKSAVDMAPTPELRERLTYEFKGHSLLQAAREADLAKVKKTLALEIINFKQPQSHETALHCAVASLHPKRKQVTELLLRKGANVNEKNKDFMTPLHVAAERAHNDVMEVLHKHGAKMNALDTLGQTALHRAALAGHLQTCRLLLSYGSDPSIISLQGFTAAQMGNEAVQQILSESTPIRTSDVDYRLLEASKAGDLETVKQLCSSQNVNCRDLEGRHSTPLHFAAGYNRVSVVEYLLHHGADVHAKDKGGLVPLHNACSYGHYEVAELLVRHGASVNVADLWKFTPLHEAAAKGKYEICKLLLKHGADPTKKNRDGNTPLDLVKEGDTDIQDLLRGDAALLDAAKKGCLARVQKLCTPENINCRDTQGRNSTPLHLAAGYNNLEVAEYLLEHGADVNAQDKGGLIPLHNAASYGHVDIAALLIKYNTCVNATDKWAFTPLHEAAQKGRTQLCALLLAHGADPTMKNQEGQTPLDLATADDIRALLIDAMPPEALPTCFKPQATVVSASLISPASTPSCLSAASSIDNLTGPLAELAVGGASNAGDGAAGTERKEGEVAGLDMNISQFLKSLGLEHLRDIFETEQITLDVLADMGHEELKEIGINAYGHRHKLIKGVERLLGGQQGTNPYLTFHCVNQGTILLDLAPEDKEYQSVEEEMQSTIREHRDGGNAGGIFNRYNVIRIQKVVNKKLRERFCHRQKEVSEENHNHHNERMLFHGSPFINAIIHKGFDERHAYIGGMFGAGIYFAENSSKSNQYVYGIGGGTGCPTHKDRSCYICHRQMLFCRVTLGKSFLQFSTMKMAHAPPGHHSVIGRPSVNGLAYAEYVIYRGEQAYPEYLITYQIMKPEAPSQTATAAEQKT
Description: Inhibition of recombinant human N-terminal TEV cleavage site-fused/FLAG-poly his-tagged TNKS SAM-PARP domain (1024 to 1327 residues) expressed in Escherichia coli assessed as reduction in auto-PARylation preincubated for 10 mins followed by biotinylated-NAD+ addition and measured after 45 mins by ELISA

Tankyrase 1/2 = target: T3, Tankyrase 1/2 (Homo sapiens, UniProt Q9H2K2+O95271)
T3 sequence (Q9H2K2 whole entry): T1 sequence (Q9H2K2 whole entry)
T3 sequence (O95271 whole entry): T2 sequence (O95271 whole entry)
Description: Inhibition of TNKS/TNKS2 (unknown origin) expressed in human DLD1 cells assessed as reduction in Wnt-signaling measured after 24 hrs by TCF-luciferase reporter gene assay

COLO 320DM = test: cells; conditions: Homo sapiens, 96 h
Description: Antiproliferative activity against human COLO320DM cells assessed as inhibition of cell growth measured after 4 days by CellTiter-Glo assay

physchem = conditions: phosphate buffer, pH 7.4
in vitro [4] = conditions: human, liver microsomes
Description: Stability in human liver microsomes assessed as parent compound remaining at 1 uM measured after 30 mins in presence of NADPH by LC-MS/MS analysis

in vitro [5] = conditions: mouse, liver microsomes
Description: Stability in mouse liver microsomes assessed as parent compound remaining at 1 uM measured after 30 mins in presence of NADPH by LC-MS/MS analysis

Chain of Poly [ADP-ribose] polymerase 1 (P09874 whole entry): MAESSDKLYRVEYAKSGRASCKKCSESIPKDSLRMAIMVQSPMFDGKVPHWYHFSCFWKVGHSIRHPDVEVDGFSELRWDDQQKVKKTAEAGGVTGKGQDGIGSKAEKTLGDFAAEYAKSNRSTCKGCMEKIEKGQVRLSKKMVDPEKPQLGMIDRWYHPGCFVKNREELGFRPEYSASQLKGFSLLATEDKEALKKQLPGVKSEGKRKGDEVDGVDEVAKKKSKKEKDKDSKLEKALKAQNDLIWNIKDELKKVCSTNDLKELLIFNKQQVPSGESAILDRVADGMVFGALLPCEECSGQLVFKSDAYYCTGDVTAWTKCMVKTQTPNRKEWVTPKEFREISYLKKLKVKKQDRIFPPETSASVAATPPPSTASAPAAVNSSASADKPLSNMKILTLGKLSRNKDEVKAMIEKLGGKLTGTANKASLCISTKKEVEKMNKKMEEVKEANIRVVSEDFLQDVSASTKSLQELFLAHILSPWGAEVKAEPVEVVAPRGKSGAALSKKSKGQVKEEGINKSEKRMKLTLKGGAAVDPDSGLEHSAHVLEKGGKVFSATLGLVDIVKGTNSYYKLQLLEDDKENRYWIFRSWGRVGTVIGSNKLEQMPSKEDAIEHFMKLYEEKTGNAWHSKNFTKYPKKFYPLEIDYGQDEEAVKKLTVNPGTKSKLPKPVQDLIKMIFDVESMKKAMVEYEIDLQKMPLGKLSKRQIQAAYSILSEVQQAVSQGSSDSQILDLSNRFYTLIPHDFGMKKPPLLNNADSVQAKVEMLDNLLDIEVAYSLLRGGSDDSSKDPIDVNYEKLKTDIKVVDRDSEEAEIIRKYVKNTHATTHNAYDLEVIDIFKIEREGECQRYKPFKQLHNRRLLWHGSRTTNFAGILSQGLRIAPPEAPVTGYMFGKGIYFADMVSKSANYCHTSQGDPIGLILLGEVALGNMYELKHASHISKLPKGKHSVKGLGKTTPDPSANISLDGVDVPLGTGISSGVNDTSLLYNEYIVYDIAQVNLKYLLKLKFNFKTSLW

Compound	IC50 [1] [µM]	IC50 [2] [µM]	IC50 [3] [µM]	IC50 (Tankyrase 1/2) [µM]	GI50 (COLO 320DM) [µM]	solubility at 1 h, 200 µM (physchem) [µg/mL]	remaining at 0.5 h, 1 µM (in vitro [4]) [%]	remaining at 0.5 h, 1 µM (in vitro [5]) [%]
COc1cccc(N2CCN(c3nc4c(c(=O)[nH]3)CSCC4)CC2)c1	> 20	0.0048	0.0062	0.148	7.4	1.7 (≈ 4.74 µM)		
O=C1Nc2ccccc2C12CCN(c1nc3c(c(=O)[nH]1)CCCC3)CC2	> 20	0.0251	0.0276	0.591	11.2	64.2 (≈ 183 µM)	84.3	0
COc1ccc(N2CCN(c3nc4c(c(=O)[nH]3)CSCC4)CC2)cc1	> 20	0.0026	0.0034	0.114	> 50	0.9 (≈ 2.51 µM)		
O=c1[nH]c(N2CCC3(CC2)OCc2ccccc23)nc2c1CCCC2	> 20	0.0357	0.0315	0.342	5.8	1.07 (≈ 3.17 µM)	76.3	0
COc1ccc(N2CCN(c3nc4c(c(=O)[nH]3)COCC4)CC2)cc1	> 20	0.148	0.22	2.246	> 20	6 (≈ 17.5 µM)		
O=c1[nH]c(N2CCC3(CC2)COc2ccccc23)nc2c1CCCC2	> 20	0.0146	0.0434	0.608	10.8	0.67 (≈ 1.99 µM)	64.3	0.1
COc1ccccc1N1CCCN(c2nc3c(c(=O)[nH]2)CCCC3)CC1	> 20		6.01	9.144	41.9	69.6 (≈ 196 µM)		
COc1ccc(N2CCN(c3nc4c(c(=O)[nH]3)CCCC4)CC2)cc1	> 20	0.0455	0.035	1.294	> 20	4.6 (≈ 13.5 µM)		
COc1cccc(N2CCN(c3nc4c(c(=O)[nH]3)CCCC4)CC2)c1	> 20	0.0397	0.0394	1.066	14.2	5.2 (≈ 15.3 µM)		
O=c1[nH]c(N2CCC3(CC2)NCc2ccccc23)nc2c1CCCC2	> 20	0.0293	0.118	1.605	22.4	67 (≈ 199 µM)		
COc1ccc(N2CCN(c3nc4c(c(=O)[nH]3)CC(F)(F)CC4)CC2)cc1	> 20	0.0364	0.0796	1.971	> 20	1.1 (≈ 2.92 µM)		
COc1ccccc1C1=CCN(c2nc3c(c(=O)[nH]2)CCCC3)CC1	> 20	0.0497	0.035	1.161	6.3	14.2 (≈ 42.1 µM)	99.3	91.7
O=c1[nH]c(N2CCC3(CC2)CNc2ccccc23)nc2c1CCCC2	> 20	0.0207	0.0285	0.352	13.1	1.6 (≈ 4.76 µM)	77.9	34.7
COc1ccccc1N1CCN(c2nc3c(c(=O)[nH]2)COCC3)CC1	> 20	0.112	0.0676	1.009	17.1	12.3 (≈ 35.9 µM)		
COc1ccccc1N1CCN(c2nc3c(c(=O)[nH]2)CSCC3)CC1	> 20	0.0023	0.0025	0.0232	3.8	0.5 (≈ 1.39 µM)		
COc1ccccc1N1CCN(c2nc3c(c(=O)[nH]2)CC(F)(F)CC3)CC1	> 20	0.0655	0.0194	0.403	15.5	0.8 (≈ 2.13 µM)		
O=C1NC2(CCN(c3nc4c(c(=O)[nH]3)CCCC4)CC2)c2ccccc21	> 20	0.258	0.514	> 10	97.7	70.1 (≈ 200 µM)		
COc1ccccc1N1CCN(c2nc3c(c(=O)[nH]2)C[S+]([O-])CC3)CC1 (configuration not stated)	> 20	5.34	6.17	> 10	> 20	8.8 (≈ 23.5 µM)		
